Our source for the melting point values is a melting point compilation (Tetko et al.).

Each structure is given as a SMILES string.

`Ic1ccc(OCCc2ccccc2)cc1` yielded a melting point of 64 to 66 °C.

As to `CC(C)(C)OC(=O)Nc1ncon1`, the melting point lay in the range of 165 to 167 °C.

As for `CNc1cnccn1`, the melting point was 44 to 46 °C.

`CC(=O)Nc1cncc(C(=O)NN)c1` showed a melting point of 229 to 231 °C.

In turn, `COc1ccc2nc(C)c(C(=O)O)cc2c1` had a melting point of 221 to 223 °C.

The molecule `O=C(O)CNC(=O)c1ccc(S(=O)(=O)Cl)cc1` registered a melting point of 130 to 132 °C.

As to `CC(C(=O)c1ccccc1)N1C(=O)CCC1=O` (stereo not drawn), the melting point was in the range of 107 to 109 °C.

As to `COc1ccc(NC(=O)OCC(F)(F)F)cc1`, the melting point is 79 to 81 °C.

As to `COc1ccccc1NC(=O)CC1Nc2ccccc2NC1=O` (stereo not drawn), the melting point was in the range of 172 to 174 °C.

`O=C(O)CSc1nnc(-c2ccccc2)n1-c1ccc(Cl)cc1` yielded a melting point of 224 to 226 °C.

Molecule `COc1ccc(CCC(=O)O)cc1O` displayed a melting point of 149 to 151 °C.

The molecule `CC(C)n1c(S)nnc1N(C)C` had a melting point of 127 to 129 °C.

The molecule `Cc1nc2c(c(C)c1CN)c(=O)[nH]n2C` displayed a melting point of 311 to 313 °C.

Molecule `OCc1cn(-c2ccc(Cl)cc2)nn1` displayed a melting point of 142 to 144 °C.

For the molecule `Cc1cc(C)n(-c2ccc(Cl)c(C(=O)O)n2)n1`, the melting point lay within 184 to 186 °C.

For `O=C(O)c1c[nH]nc1-c1cccc(Cl)c1`, the melting point lay within 251 to 253 °C.

In turn, `O=C1OCCc2cnc3ccnn3c21` registered a melting point of 213 to 215 °C.

As for `Brc1ccccc1-c1ncno1`, the melting point lay within 35 to 37 °C.

As for `O=C1CCc2c(F)ccc(F)c21`, the melting point lay in the range of 117 to 119 °C.

Take `COc1ccc(-c2nnc(S)o2)cc1`: the melting point lay in the range of 202 to 204 °C.

Molecule `Nc1ccc2nc(Cc3ccccc3)oc2c1` gave a melting point of 104 to 106 °C.

In turn, `COCCNc1ccc(C#N)cc1` showed a melting point of 66 to 68 °C.

Take `CCCS(=O)(=O)Nc1cccc(O)c1`: the melting point fell in the range of 101 to 103 °C.

The molecule `CC1C(=O)Nc2cc(C(=O)O)ccc2N1C` (stereo not drawn) came in with a melting point of 289 to 291 °C.

The molecule `CC(C(=O)O)n1c(S)nc2ccccc2c1=O` (stereo not drawn) yielded a melting point of 238 to 240 °C.

`CC(=O)CCc1ccc2c(c1)OCO2` yielded a melting point of 50 to 52 °C.

`Nc1ccc(Oc2cnccn2)cc1`: the melting point was 138 to 140 °C.

Consider `Cc1nc(Cl)c(C)c(NN)n1`, for which the melting point lay in the range of 141 to 143 °C.

In turn, `Nc1ccc(F)c(NC(=O)Cn2cncn2)c1` showed a melting point of 194 to 196 °C.

The molecule `CC(C)N(CCC#N)S(C)(=O)=O` gave a melting point of 107 to 109 °C.

Consider `O=C(O)CCc1nc2cccc(Cl)c2[nH]1`, for which the melting point lay within 209 to 211 °C.

Take `COC(=O)Nc1ccccc1O`: the melting point is 120 to 122 °C.

`COc1ccccc1OCCC(=O)O` displayed a melting point of 133 to 135 °C.

As to `O=C(O)c1cccc(CO)c1`, the melting point was 111 to 113 °C.

`O=C(O)c1cncn1-c1ccccc1` returned a melting point of 208 to 215 °C.

Consider `COc1ccc(C(=O)CC(C)=O)cc1`, for which the melting point lay in the range of 52 to 54 °C.

As for `CC(Oc1ccc(C#N)cc1)C(=O)O` (stereo not drawn), the melting point was 158 to 160 °C.

`Cc1c(S(=O)(=O)Cl)cnn1-c1ccc(F)cc1` showed a melting point of 96 to 98 °C.

As to `CNc1cc(Cl)cc(CO)c1`, the melting point lay within 49 to 51 °C.

With `Cc1cc(C)cc(-n2ncc(C(=O)O)n2)c1`, the melting point is 158 to 160 °C.

`CC1N=C(S)N(C2CC2)C1=O` (stereo not drawn): the melting point was < 17 °C.

Turning to `O=S(=O)(c1ccc(CCl)o1)N1CCCC1`, the melting point fell in the range of 81 to 83 °C.

In turn, `CNc1ncc(C(F)(F)F)cc1Cl` came in with a melting point of 44 to 46 °C.

As for `CCOC(=O)c1c(C)oc2ccc(O)cc12`, the melting point was in the range of 136 to 138 °C.

As to `CCN(CC)S(=O)(=O)c1cccc(C(=O)O)c1`, the melting point lay within 164 to 166 °C.

Turning to `CC(CC(=O)O)C(=O)c1cccc(F)c1` (stereo not drawn), the melting point lay within 59 to 61 °C.

As to `Cc1ccc(N)cc1S(=O)(=O)N1CCCCCC1`, the melting point was in the range of 44 to 46 °C.

Molecule `NC(=S)CC(=O)NCc1ccccc1` gave a melting point of 112 to 116 °C.

For `O=C(COc1ccccc1C(=O)O)Nc1ccccc1F`, the melting point was in the range of 197 to 199 °C.

Turning to `O=C(O)CCc1ccc(-c2ccccc2)[nH]1`, the melting point lay in the range of 197 to 199 °C.

Molecule `CN(C)S(=O)(=O)c1cc(N)ccc1Cl` yielded a melting point of 125 to 129 °C.

Take `COc1ccc(-c2csc(CC#N)n2)cc1OC`: the melting point is 101 to 103 °C.

Molecule `Cc1nc(N(C)C)sc1C(=O)O` yielded a melting point of 99 to 101 °C.

Take `CN(C)S(=O)(=O)c1ccc2c(c1)CCCN2`: the melting point was in the range of 160 to 162 °C.

`Cc1ncc(CN)n1-c1ccccc1` displayed a melting point of 46 to 48 °C.

In turn, `NC1=C(c2nc3ccccc3[nH]2)C(=O)CN1N` showed a melting point of 296 to 300 °C.

In turn, `CCCNC(=O)CN1CCNCC1` showed a melting point of 31 to 32 °C.

Take `N#Cc1ccc(C(=O)CC(=O)C(F)(F)F)cc1`: the melting point lay within 128 to 130 °C.

`Cc1nc(-c2ccccc2Br)sc1C(C)O` (stereo not drawn): the melting point was in the range of 79 to 81 °C.

In turn, `O=S(=O)(Cl)c1cc2c(cc1Br)OCCCO2` yielded a melting point of 105 to 107 °C.

The molecule `O=C(C1OCCc2ccccc21)N1CCCC1` (stereo not drawn) registered a melting point of 109 to 111 °C.

As to `FC(F)(F)CN1CCNc2ccccc21`, the melting point was in the range of 62 to 64 °C.

With `CC1CCC2C(=O)N(C)C(=O)C2C1C(=O)O` (stereo not drawn), the melting point lay in the range of 151 to 153 °C.

For the molecule `Nc1cnccc1CO`, the melting point was in the range of 112 to 114 °C.

Turning to `CN1C(=O)C(C(N)=O)=C(N)C12CCCC2`, the melting point was 255 to 257 °C.

`Fc1cccc(-n2nnnc2S)c1`: the melting point was in the range of 128 to 146 °C.

Molecule `O=C(CCl)N1CCc2ccccc21` showed a melting point of 118 to 120 °C.

The molecule `O=C(O)c1ccc(Oc2cc(Cl)ccc2Cl)cc1` returned a melting point of 169 to 171 °C.

`CCC(NC(=O)OC(C)(C)C)C(=O)O` (stereo not drawn): the melting point was in the range of 88 to 90 °C.

Molecule `CCc1ccc(N)c(C(=O)OC)c1` showed a melting point of 83 to 85 °C.

Regarding `CNC(=O)c1c(Cl)ccc(S(=O)(=O)NC)c1Cl`, the melting point was in the range of 231 to 233 °C.

Turning to `Sc1nncn1-c1ccccc1`, the melting point was in the range of 172 to 174 °C.

In the case of `O=C1CN(Cc2ccc(Br)cc2F)CCN1`, the melting point lay in the range of 142 to 144 °C.

`O=c1c(Cl)c(Cl)cnn1-c1ccc(S(=O)(=O)Cl)cc1`: the melting point was 144 to 146 °C.

As for `O=C1CC(C(=O)O)C1`, the melting point fell in the range of 58 to 60 °C.

With `O=Cc1ccc(Cl)c2cccnc12`, the melting point was in the range of 132 to 134 °C.

Molecule `O=C(O)CCCSc1nc2ccccc2s1` came in with a melting point of 103 to 105 °C.

Turning to `O=C(O)c1cc([N+](=O)[O-])c(F)cc1Br`, the melting point was 171 to 173 °C.

In the case of `O=C(O)c1ccc(COc2ccccc2)s1`, the melting point is 134 to 136 °C.

Take `O=C(O)c1sccc1S(=O)(=O)N1CCC(O)CC1`: the melting point fell in the range of 219 to 221 °C.

Take `O=C(O)CNC(=O)CC1CCCCC1`: the melting point was 116 to 118 °C.

As for `CN1CCN(Cc2ccc(N)cc2)CC1`, the melting point lay in the range of 96 to 98 °C.

Regarding `OC(c1ccccc1)C1CCNCC1` (stereo not drawn), the melting point was in the range of 171 to 173 °C.

Molecule `Cc1c(C(=O)O)cnn1C1CCCC1` displayed a melting point of 99 to 101 °C.

In turn, `O=C1CCSc2ccc(Br)cc21` had a melting point of 49 to 51 °C.

In turn, `COc1ccc2c(c1)c(C(=O)O)c(C)n2C1CCCC1` registered a melting point of 174 to 176 °C.

`O=C(O)CNC(=O)c1ccc(Br)s1` gave a melting point of 177 to 179 °C.

For the molecule `Cc1ccc(O)c(C=O)n1`, the melting point lay within 64 to 66 °C.

The molecule `CN(C)C(=O)c1ccnc(N)c1` displayed a melting point of 196 to 198 °C.

Consider `Cn1cc(C(=O)O)c(-c2cccs2)n1`, for which the melting point lay in the range of 179 to 181 °C.

As for `Nc1ccc(S(=O)(=O)CC2CCCO2)cc1` (stereo not drawn), the melting point is 100 to 102 °C.

`O=C1CCc2c(Cl)cccc21`: the melting point lay in the range of 84 to 86 °C.

`Cc1cc(N2CCNC(=O)C2)ccc1CN` registered a melting point of 154 to 156 °C.

`O=C(O)c1ccc2c(=O)[nH]c(CCl)nc2c1`: the melting point lay within 344 to 346 °C.

`COc1ccc(NC(=O)c2c(N)sc3c2CCCC3)cc1` showed a melting point of 158 to 160 °C.

For `NS(=O)(=O)c1ccc2c(c1)CCN2`, the melting point is 162 to 166 °C.

`CN(C)C(=S)Oc1cccc(C=O)c1` yielded a melting point of 65 to 67 °C.

With `Nc1cccc(CNC(=O)Nc2ccccc2Cl)c1`, the melting point lay within 177 to 179 °C.

As to `CC1CC1c1ccc(C(=O)O)o1` (stereo not drawn), the melting point fell in the range of 55 to 57 °C.

`Nc1ccc(N2CCNC(=O)C2)c(Cl)c1`: the melting point lay within 147 to 149 °C.

The molecule `O=C(O)c1cccnc1N1CCCCC1` had a melting point of 94 to 96 °C.

`N#CC(N)c1ccc(OCc2ccccc2)cc1` (stereo not drawn): the melting point was in the range of 111 to 113 °C.

`CCCC(=O)Nc1c(Cl)cc(Cl)cc1C(=O)O` came in with a melting point of 180 to 182 °C.

`CC(Cl)C(=O)Nc1ccc(C(C)(C)C)cc1` (stereo not drawn) yielded a melting point of 143 to 145 °C.

Take `COCCNS(=O)(=O)c1ccc(Br)c(C(=O)O)c1`: the melting point was in the range of 194 to 197 °C.

As for `CC(C)CCn1nc(C(=O)O)c2ccccc2c1=O`, the melting point was in the range of 133 to 135 °C.

`CC1CC1C(=O)Nc1ccc(F)cc1C(=O)O` (stereo not drawn) registered a melting point of 173 to 175 °C.

Consider `Cc1cc(=O)[nH]c(-c2ccncc2)n1`, for which the melting point lay in the range of 241 to 243 °C.

As for `O=C1CCS(=O)(=O)CC1`, the melting point fell in the range of 167 to 169 °C.

`O=C(CCl)NCCOc1ccccc1`: the melting point lay within 67 to 69 °C.

The molecule `O=C(CCl)NCC(=O)N1CCCC1` returned a melting point of 125 to 127 °C.

Turning to `COc1ccc(C2(C(=O)O)CCCCC2)cc1OC`, the melting point lay within 124 to 126 °C.

The molecule `CC(=O)NCc1ccc(S(N)(=O)=O)cc1` had a melting point of 170 to 172 °C.

On to `CCc1cc(C(=O)O)sc1C`, for which the melting point was 108 to 110 °C.

`N#Cc1c2c(n(-c3ccccc3)c1NC(=O)CCl)CCCC2` came in with a melting point of 156 to 158 °C.

In turn, `CC(O)c1ccc(NC(=O)c2ccncc2)cc1` (stereo not drawn) showed a melting point of 174 to 176 °C.

`C#CC1CCCN(C(=O)OC(C)(C)C)C1` (stereo not drawn): the melting point lay in the range of 67 to 69 °C.

`O=C(NC1CCS(=O)(=O)C1)OCC(F)(F)F` (stereo not drawn): the melting point is 79 to 81 °C.

As for `CSCCC1NC(=O)NC1=O` (stereo not drawn), the melting point fell in the range of 108 to 110 °C.

As to `O=C(O)CCNC(=O)c1ccc(F)cc1`, the melting point was 133 to 135 °C.

`Oc1ccc(Cl)cc1-c1cc(-c2ccco2)[nH]n1` returned a melting point of 166 to 168 °C.

Molecule `CN1C(=O)CCC(C(N)=O)C1c1ccccc1` (stereo not drawn) registered a melting point of 222 to 224 °C.

For `COC(=O)c1ccc2c(Cl)ncnc2c1`, the melting point fell in the range of 104 to 106 °C.
